Laboratory results published in the NIST ThermoML archive (doi:10.1021/je800110r).
“And” between values parts separate entries of the source, which are not always exact repeats. Equal entries are not always repeated.

Conditions: 303.16 K, Liquid, Vibrating tube method

CCCCCCCCCC [decane]
Conditions | mass density
4941 kPa | 726.2 kg/m3
4955 kPa | 726.3 kg/m3
4969 kPa | 726.3 kg/m3
4979 kPa | 726.4 kg/m3
4994 kPa | 726.4 kg/m3
5007 kPa | 726.3 kg/m3
5019 kPa | 726.4 kg/m3
5029 kPa | 726.4 kg/m3
5041 kPa | 726.3 kg/m3
5052 kPa | 726.3 kg/m3
5065 kPa | 726.4 kg/m3
5075 kPa | 726.5 kg/m3
5091 kPa | 726.4 kg/m3
5107 kPa | 726.5 kg/m3
5119 kPa | 726.6 kg/m3
5129 kPa | 726.5 kg/m3
5140 kPa | 726.5 kg/m3
5153 kPa | 726.4 kg/m3
5167 kPa | 726.5 kg/m3
5177 kPa | 726.4 kg/m3
5193 kPa | 726.4 kg/m3
5209 kPa | 726.4 kg/m3
5220 kPa | 726.6 kg/m3
5236 kPa | 726.5 kg/m3
5251 kPa | 726.5 kg/m3
5261 kPa | 726.5 kg/m3
5276 kPa | 726.5 kg/m3
5292 kPa | 726.5 kg/m3
5309 kPa | 726.5 kg/m3
5318 kPa | 726.4 kg/m3
5331 kPa | 726.6 kg/m3
5342 kPa | 726.7 kg/m3
5359 kPa | 726.6 kg/m3
5374 kPa | 726.6 kg/m3
5385 kPa | 726.6 kg/m3
5399 kPa | 726.5 kg/m3
5412 kPa | 726.5 kg/m3
5427 kPa | 726.7 kg/m3
5443 kPa | 726.6 kg/m3
5459 kPa | 726.7 kg/m3
5473 kPa | 726.7 kg/m3
5488 kPa | 726.8 kg/m3
5501 kPa | 726.6 kg/m3
5514 kPa | 726.8 kg/m3
5532 kPa | 726.8 kg/m3
5548 kPa | 726.7 kg/m3
5562 kPa | 726.8 kg/m3
5576 kPa | 726.8 kg/m3
5593 kPa | 726.8 kg/m3
5607 kPa | 726.8 kg/m3
5626 kPa | 726.8 kg/m3
5642 kPa | 726.8 kg/m3
5655 kPa | 726.8 kg/m3
5674 kPa | 726.9 kg/m3
5690 kPa | 726.9 kg/m3
5705 kPa | 726.8 kg/m3
5723 kPa | 727 kg/m3
5738 kPa | 726.9 kg/m3
5751 kPa | 726.9 kg/m3
5770 kPa | 727 kg/m3
5791 kPa | 727 kg/m3
5803 kPa | 726.9 kg/m3
5819 kPa | 727 kg/m3
5834 kPa | 726.9 kg/m3
5851 kPa | 726.9 kg/m3
5864 kPa | 727 kg/m3
5873 kPa | 727 kg/m3
5878 kPa | 727 kg/m3
5884 kPa | 727 kg/m3
5887 kPa | 727.1 kg/m3
5896 kPa | 727.1 kg/m3
5908 kPa | 727.1 kg/m3
5926 kPa | 727.1 kg/m3
5940 kPa | 727 kg/m3
5954 kPa | 727 kg/m3
5971 kPa | 727.1 kg/m3
5986 kPa | 727.1 kg/m3
6008 kPa | 727 kg/m3
6029 kPa | 727.1 kg/m3
6044 kPa | 727.2 kg/m3
6063 kPa | 727 kg/m3
6080 kPa | 727.3 kg/m3
6100 kPa | 727.2 kg/m3
6118 kPa | 727.1 kg/m3
6139 kPa | 727.3 kg/m3
6161 kPa | 727.3 kg/m3
6178 kPa | 727.2 kg/m3
6196 kPa | 727.2 kg/m3
6201 kPa | 727 kg/m3
6204 kPa | 727.3 kg/m3
6205 kPa | 727.3 kg/m3
6209 kPa | 727.3 kg/m3
6210 kPa | 727.2 kg/m3
6211 kPa | 727.3 kg/m3
6212 kPa | 727.3 kg/m3
6213 kPa | 727.3 kg/m3
6214 kPa | 727.2 kg/m3
6215 kPa | 727.3 kg/m3 and 727.2 kg/m3
6216 kPa | 727.2 kg/m3 and 727.3 kg/m3 and 727.4 kg/m3
6222 kPa | 727.3 kg/m3
6239 kPa | 727.2 kg/m3
6255 kPa | 727.3 kg/m3
6262 kPa | 727.4 kg/m3
6278 kPa | 727.2 kg/m3
6282 kPa | 727.3 kg/m3
6283 kPa | 727.3 kg/m3
6306 kPa | 727.4 kg/m3
6327 kPa | 727.3 kg/m3
6345 kPa | 727.4 kg/m3
6368 kPa | 727.4 kg/m3
6383 kPa | 727.4 kg/m3
6399 kPa | 727.5 kg/m3
6414 kPa | 727.4 kg/m3
6427 kPa | 727.5 kg/m3
6451 kPa | 727.5 kg/m3
6470 kPa | 727.5 kg/m3
6485 kPa | 727.6 kg/m3
6507 kPa | 727.4 kg/m3
6524 kPa | 727.5 kg/m3
6545 kPa | 727.6 kg/m3
6560 kPa | 727.5 kg/m3
6580 kPa | 727.5 kg/m3
6598 kPa | 727.6 kg/m3
6621 kPa | 727.7 kg/m3
6642 kPa | 727.6 kg/m3
6661 kPa | 727.7 kg/m3
6684 kPa | 727.7 kg/m3
6705 kPa | 727.6 kg/m3
6721 kPa | 727.6 kg/m3
6735 kPa | 727.7 kg/m3
6759 kPa | 727.7 kg/m3
6783 kPa | 727.8 kg/m3
6799 kPa | 727.7 kg/m3
6818 kPa | 727.8 kg/m3
6841 kPa | 727.7 kg/m3
6864 kPa | 727.8 kg/m3
6881 kPa | 727.9 kg/m3
6904 kPa | 727.9 kg/m3
6929 kPa | 727.9 kg/m3
6949 kPa | 727.9 kg/m3
6969 kPa | 727.8 kg/m3
6992 kPa | 727.8 kg/m3
7009 kPa | 728 kg/m3
7035 kPa | 727.9 kg/m3
7053 kPa | 728 kg/m3
7084 kPa | 727.9 kg/m3
7102 kPa | 728 kg/m3
7120 kPa | 727.9 kg/m3
7147 kPa | 728 kg/m3
7171 kPa | 728 kg/m3
7193 kPa | 728 kg/m3
7215 kPa | 728.1 kg/m3
7235 kPa | 728.1 kg/m3
7258 kPa | 728.1 kg/m3
7279 kPa | 728.1 kg/m3
7295 kPa | 728 kg/m3
7309 kPa | 728.1 kg/m3
7326 kPa | 728.1 kg/m3
7343 kPa | 728.2 kg/m3
7357 kPa | 728.1 kg/m3
7371 kPa | 728.2 kg/m3
7388 kPa | 728.3 kg/m3
7403 kPa | 728.1 kg/m3
7422 kPa | 728.3 kg/m3
7442 kPa | 728.3 kg/m3
7459 kPa | 728.3 kg/m3
7474 kPa | 728.2 kg/m3
7491 kPa | 728.3 kg/m3
7511 kPa | 728.2 kg/m3
7532 kPa | 728.4 kg/m3
7549 kPa | 728.3 kg/m3
7567 kPa | 728.3 kg/m3
7588 kPa | 728.4 kg/m3
7605 kPa | 728.4 kg/m3
7626 kPa | 728.4 kg/m3
7644 kPa | 728.3 kg/m3
7665 kPa | 728.5 kg/m3
7683 kPa | 728.3 kg/m3
7699 kPa | 728.5 kg/m3
7720 kPa | 728.4 kg/m3
7737 kPa | 728.4 kg/m3
7756 kPa | 728.5 kg/m3
7783 kPa | 728.5 kg/m3
7802 kPa | 728.5 kg/m3
7819 kPa | 728.5 kg/m3
7847 kPa | 728.5 kg/m3
7867 kPa | 728.5 kg/m3
7880 kPa | 728.5 kg/m3
7901 kPa | 728.6 kg/m3
7922 kPa | 728.6 kg/m3
7936 kPa | 728.6 kg/m3
7957 kPa | 728.7 kg/m3
7974 kPa | 728.6 kg/m3
7993 kPa | 728.7 kg/m3
8014 kPa | 728.6 kg/m3
8028 kPa | 728.7 kg/m3
8052 kPa | 728.6 kg/m3
8069 kPa | 728.7 kg/m3
8088 kPa | 728.7 kg/m3
8105 kPa | 728.8 kg/m3
8124 kPa | 728.7 kg/m3
8139 kPa | 728.7 kg/m3
8157 kPa | 728.8 kg/m3
8172 kPa | 728.9 kg/m3
8191 kPa | 728.8 kg/m3
8214 kPa | 728.9 kg/m3
8229 kPa | 728.9 kg/m3
8249 kPa | 728.8 kg/m3
8265 kPa | 728.8 kg/m3
8287 kPa | 728.9 kg/m3
8313 kPa | 729 kg/m3
8328 kPa | 728.9 kg/m3
8349 kPa | 728.9 kg/m3
8365 kPa | 729 kg/m3
8382 kPa | 729.1 kg/m3
8400 kPa | 729.1 kg/m3
8417 kPa | 729 kg/m3
8439 kPa | 728.9 kg/m3
8459 kPa | 729 kg/m3
8476 kPa | 729.1 kg/m3
8493 kPa | 729.1 kg/m3
8509 kPa | 729 kg/m3
8529 kPa | 729 kg/m3
8546 kPa | 729.1 kg/m3
8561 kPa | 729.2 kg/m3
8582 kPa | 729.1 kg/m3
8601 kPa | 729.2 kg/m3
8617 kPa | 729.2 kg/m3
8632 kPa | 729.2 kg/m3
8647 kPa | 729.2 kg/m3
8663 kPa | 729.2 kg/m3
8682 kPa | 729.2 kg/m3
8699 kPa | 729.2 kg/m3
8715 kPa | 729.2 kg/m3
8730 kPa | 729.2 kg/m3
8742 kPa | 729.3 kg/m3
8752 kPa | 729.3 kg/m3
8768 kPa | 729.2 kg/m3
8778 kPa | 729.3 kg/m3
8792 kPa | 729.2 kg/m3
8807 kPa | 729.4 kg/m3
8821 kPa | 729.3 kg/m3
8831 kPa | 729.3 kg/m3
8847 kPa | 729.2 kg/m3
8862 kPa | 729.3 kg/m3
8874 kPa | 729.2 kg/m3
8884 kPa | 729.4 kg/m3
8895 kPa | 729.3 kg/m3
8905 kPa | 729.3 kg/m3
8920 kPa | 729.4 kg/m3
8936 kPa | 729.4 kg/m3
8948 kPa | 729.4 kg/m3
8961 kPa | 729.5 kg/m3
8973 kPa | 729.4 kg/m3
8986 kPa | 729.4 kg/m3
8998 kPa | 729.5 kg/m3
9014 kPa | 729.5 kg/m3
9025 kPa | 729.4 kg/m3
9040 kPa | 729.5 kg/m3
9051 kPa | 729.5 kg/m3
9064 kPa | 729.4 kg/m3
9075 kPa | 729.5 kg/m3
9092 kPa | 729.6 kg/m3
9107 kPa | 729.6 kg/m3
9118 kPa | 729.5 kg/m3
9133 kPa | 729.6 kg/m3
9151 kPa | 729.6 kg/m3
9166 kPa | 729.5 kg/m3
9179 kPa | 729.5 kg/m3
9192 kPa | 729.6 kg/m3
9204 kPa | 729.6 kg/m3
9219 kPa | 729.7 kg/m3
9237 kPa | 729.6 kg/m3
9251 kPa | 729.6 kg/m3
